Source: paper PMC9090415, “Discovery of small molecule inhibitors of Plasmodium falciparum apicoplast DNA polymerase” (Journal of Enzyme Inhibition and Medicinal Chemistry, 2022)

Target: P. falciparum apicoplast DNA polymerase (Pf-apPOL) (Plasmodium falciparum, UniProt Q8ILY1)
Experiment: Fluorescence-based high-throughput DNA polymerase assay (molecular beacon), primary screen and dose-response
Format: biochemical
Method: The HT assay employs a molecular beacon, a stem-loop DNA template with a Cy3 dye and the Black Hole Quencher on the 3′ and 5′ ends of the DNA, respectively. Pf-apPOL concentration is based on a calculated absorptivity of ε280 = 56750 M^−1 cm^−1. Reactions were carried out at 25 °C, using Corning 3575 […] (well-volume, 20 µL). Assays testing for compound inhibition composed of reaction buffer (pH 7.9 in 50 mM potassium acetate, 20 mM Tris-acetate and 10 mM magnesium acetate), Pf-apPOL (20 nM), DNA substrate (20 nM), dNTPs (6 µM), and compound (10 µM in DMSO). The DNA and nucleotide substrates (dNTPs) were at concentrations of 20 nM and 6 µM, respectively, in the assay. Pf-apPOL was incubated in the reaction buffer with dNTPs and the compound of interest (10 µM, in the assay) at 25 °C for 10 min. The DNA substrate was then added and the reaction was allowed to proceed for 90 min at 25 °C.
Each assay plate contained 16 negative controls (no Pf-apPOL, DMSO present) and 16 positive controls (Pf-apPOL present, no DMSO). The fluorescence of each well was determined using a BioTek Synergy Neo fluorescence plate reader using excitation and emission wavelengths of 555 and 570 nm, respectively.
In the above, Min is the average of fluorescence emission of the negative controls (substrate only), Max the average fluorescence emission from the positive controls (enzyme + substrate), and Test the emission from the assays in the presence of compounds (enzyme + compound + substrates). […] […] The IC50 of each compound was determined using Equation (2): (2) IC50= Vmax/(1+ (I/IC50)^n)
In the above, n measures cooperativity, with n > 1 indicating synergistic binding of more than a single molecule of the compound.
To identify apPOL inhibitors we utilised our previously developed high-throughput DNA polymerase assay. The HT assay is based on a molecular beacon DNA template that forms a stem-loop with a Cy3 dye and the Black Hole Quencher on the 3′ and 5′ ends of the DNA, respectively. DNA polymerase activity extends an annealed primer through the stem region, displacing the fluorophore from the quencher, thereby increasing its fluorescence (Figure 1(A)). The assay accurately recapitulates the kinetic behaviour of apPOL, as measured through more conventional low-throughput gel-based assays. The Z′ factor for the assay described here was 0.9 across all plates (data not shown).
Figure 1. High-throughput screening. (A) The fluorescent-based DNA polymerase assay used to screen the compound libraries. The DNA template strand is a hairpin loop with a primer annealed to the loop. The 3’ end of the primer is 11 bases away from the 6 bp duplex. Strand displacement activity of the DNA polymerase separates the Cy3 dye from the Black hole quencher leading to an increase in fluorescent signal. (B) The high-throughput assay workflow. The DNA polymerase is incubated with […] compound for 10 min prior to addition of the hairpin substrate. The reaction is quenched at 3 different time points and the fluorescent signal is measured and % inhibition is determined using the provided equation.

[1] = DRC-1; concentration 80 (unit not given); 10'
[2] = primary screen value of the 186 hits; unit not given; 90 min, 10 µM
[3] = primary screen value; head prints only 'DNA Pol'; 90 min, 10 µM

P. falciparum apicoplast DNA polymerase (Pf-apPOL), sequence (Q8ILY1 entry or part of it): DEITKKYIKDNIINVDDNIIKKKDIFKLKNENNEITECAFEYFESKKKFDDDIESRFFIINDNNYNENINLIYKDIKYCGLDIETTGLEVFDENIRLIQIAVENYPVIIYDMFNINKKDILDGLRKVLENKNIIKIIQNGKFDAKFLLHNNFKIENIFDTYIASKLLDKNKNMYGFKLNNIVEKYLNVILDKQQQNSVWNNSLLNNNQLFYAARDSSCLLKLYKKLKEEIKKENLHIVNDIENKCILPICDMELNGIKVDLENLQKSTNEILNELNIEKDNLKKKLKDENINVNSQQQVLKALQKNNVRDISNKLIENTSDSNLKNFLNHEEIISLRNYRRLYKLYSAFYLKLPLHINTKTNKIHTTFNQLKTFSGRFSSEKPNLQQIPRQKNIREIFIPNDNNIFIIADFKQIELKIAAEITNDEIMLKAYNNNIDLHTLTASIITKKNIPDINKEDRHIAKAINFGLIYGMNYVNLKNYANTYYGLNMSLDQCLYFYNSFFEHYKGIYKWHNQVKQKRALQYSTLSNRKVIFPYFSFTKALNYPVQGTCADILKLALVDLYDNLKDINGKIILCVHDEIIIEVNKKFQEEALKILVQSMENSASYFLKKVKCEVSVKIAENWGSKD

O=C(Cn1ccc2c(=O)[nH]ccc21)Nc1ccccc1Cl [Molecule 19, O=C(Cn1ccc2c1cc[nH]c2=O)Nc1ccccc1Cl]
% inhibition Apo pol 10' (DRC-1; concentration 2.5; 10'): 11.0481% | % inhibition Apol 90' (DRC-1; concentration 2.5; 90'): 3.184% | % inhibition apPOL 180' (DRC-1; concentration 2.5; 180'): -2.947% | % inhibition Apo pol 10' (DRC-1; concentration 5; 10'): 18.9507% | % inhibition Apol 90' (DRC-1; concentration 5; 90'): 7.548% | % inhibition apPOL 180' (DRC-1; concentration 5; 180'): -2.382% | % inhibition Apo pol 10' (DRC-1; concentration 10; 10'): 79.9443% | % inhibition Apol 90' (DRC-1; concentration 10; 90'): 71.2049% | % inhibition apPOL 180' (DRC-1; concentration 10; 180'): 56.5053% | % inhibition Apo pol 10' (DRC-1; concentration 20; 10'): 88.2896% | % inhibition Apol 90' (DRC-1; concentration 20; 90'): 90.2431% | % inhibition apPOL 180' (DRC-1; concentration 20; 180'): 88.4548% | % inhibition Apo pol 10' (DRC-1; concentration 40; 10'): 86.4384% | % inhibition Apol 90' (DRC-1; concentration 40; 90'): 91.2458% | % inhibition apPOL 180' (DRC-1; concentration 40; 180'): 93.0665% | % inhibition Apo pol 10' [1]: 78.354% | % inhibition Apol 90' (DRC-1; concentration 80; 90'): 86.1065% | % inhibition apPOL 180' (DRC-1; concentration 80; 180'): 89.6716% | % inhibition Apol 40' (DRC-2; 40'; concentration 10): 65% | % inhibition Apol 40' (DRC-2; 40'; concentration 40): 65% | % inhibition apPOL 180' (DRC-2; 180'; concentration 20): 77% | % inhibition apPOL 180' (DRC-2; 180'; concentration 40): 77% | % inhibition Apo pol 5' (DRC-2; concentration 2.5; 5'): 15% | % inhibition Apol 40' (DRC-2; concentration 2.5; 40'): 14% | % inhibition ApPOL 90' (DRC-2; concentration 2.5; 90'): 9% | % inhibition apPOL 180' (DRC-2; concentration 2.5; 180'): -0.373% | % inhibition Apo pol 5' (DRC-2; concentration 5; 5'): 30% | % inhibition Apol 40' (DRC-2; concentration 5; 40'): 36% | % inhibition ApPOL 90' (DRC-2; concentration 5; 90'): 32% | % inhibition apPOL 180' (DRC-2; concentration 5; 180'): 18% | % inhibition Apo pol 5' (DRC-2; concentration 10; 5'): 48% | % inhibition Apol 40' (DRC-2; concentration 10; 40'): 65% | % inhibition ApPOL 90' (DRC-2; concentration 10; 90'): 67% | % inhibition apPOL 180' (DRC-2; concentration 10; 180'): 63% | % inhibition Apo pol 5' (DRC-2; concentration 20; 5'): 44% | % inhibition Apol 40' (DRC-2; concentration 20; 40'): 68% | % inhibition ApPOL 90' (DRC-2; concentration 20; 90'): 73% | % inhibition apPOL 180' (DRC-2; concentration 20; 180'): 77% | % inhibition Apo pol 5' (DRC-2; concentration 40; 5'): 37% | % inhibition Apol 40' (DRC-2; concentration 40; 40'): 65% | % inhibition ApPOL 90' (DRC-2; concentration 40; 90'): 70% | % inhibition apPOL 180' (DRC-2; concentration 40; 180'): 77% | % inhibition Apo pol 5' (DRC-2; concentration 80; 5'): 28% | % inhibition Apol 40' (DRC-2; concentration 80; 40'): 56% | % inhibition ApPOL 90' (DRC-2; concentration 80; 90'): 64% | % inhibition apPOL 180' (DRC-2; concentration 80; 180'): 72% | DNA Pol [2]: 82 | DNA Pol [3]: 82

O=C(c1ccccc1)N1CCc2c(nc3cc(-c4ccccc4)[nH]n3c2=O)C1 [Molecule 30]
IC50 (supplemental file 2, sheet IC50 nontoxic compounds; Pf-apPOL): 9.54 µM

CCCN1COc2ccc3c(=O)c(-c4ccccc4)coc3c2C1 [KU0199556]
% inhibition Apo pol 10' (DRC-1; concentration 2.5; 10'): 3.335% | % inhibition Apol 90' (DRC-1; concentration 2.5; 90'): 6.953% | % inhibition apPOL 180' (DRC-1; concentration 2.5; 180'): 12.8227% | % inhibition Apo pol 10' (DRC-1; concentration 5; 10'): 0.6816% | % inhibition Apol 90' (DRC-1; concentration 5; 90'): 8.234% | % inhibition apPOL 180' (DRC-1; concentration 5; 180'): 17.5775% | % inhibition Apo pol 10' (DRC-1; concentration 10; 10'): 12.2491% | % inhibition Apol 90' (DRC-1; concentration 10; 90'): 22.7546% | % inhibition apPOL 180' (DRC-1; concentration 10; 180'): 37.4083% | % inhibition Apo pol 10' (DRC-1; concentration 20; 10'): 29.2216% | % inhibition Apol 90' (DRC-1; concentration 20; 90'): 42.6091% | % inhibition apPOL 180' (DRC-1; concentration 20; 180'): 58.6511% | % inhibition Apo pol 10' (DRC-1; concentration 40; 10'): 57.482% | % inhibition Apol 90' (DRC-1; concentration 40; 90'): 69.5557% | % inhibition apPOL 180' (DRC-1; concentration 40; 180'): 84.4582% | % inhibition Apo pol 10' [1]: 71.548% | % inhibition Apol 90' (DRC-1; concentration 80; 90'): 77.7995% | % inhibition apPOL 180' (DRC-1; concentration 80; 180'): 92.1066% | % inhibition Apo pol 5' (DRC-2; 5'; concentration 80): 51% | % inhibition Apol 40' (DRC-2; 40'; concentration 80): 51% | % inhibition ApPOL 90' (DRC-2; 90'; concentration 20): 39% | % inhibition ApPOL 90' (DRC-2; 90'; concentration 40): 51% | % inhibition apPOL 180' (DRC-2; 180'; concentration 80): 39% | % inhibition Apo pol 5' (DRC-2; concentration 2.5; 5'): 7.48% | % inhibition Apol 40' (DRC-2; concentration 2.5; 40'): 5% | % inhibition ApPOL 90' (DRC-2; concentration 2.5; 90'): 3.57% | % inhibition apPOL 180' (DRC-2; concentration 2.5; 180'): -2.43% | % inhibition Apo pol 5' (DRC-2; concentration 5; 5'): 10% | % inhibition Apol 40' (DRC-2; concentration 5; 40'): 0.118% | % inhibition ApPOL 90' (DRC-2; concentration 5; 90'): -8% | % inhibition apPOL 180' (DRC-2; concentration 5; 180'): -84% | % inhibition Apo pol 5' (DRC-2; concentration 10; 5'): 25% | % inhibition Apol 40' (DRC-2; concentration 10; 40'): 23% | % inhibition ApPOL 90' (DRC-2; concentration 10; 90'): 20% | % inhibition apPOL 180' (DRC-2; concentration 10; 180'): 6.45% | % inhibition Apo pol 5' (DRC-2; concentration 20; 5'): 41% | % inhibition Apol 40' (DRC-2; concentration 20; 40'): 42% | % inhibition ApPOL 90' (DRC-2; concentration 20; 90'): 39% | % inhibition apPOL 180' (DRC-2; concentration 20; 180'): 22% | % inhibition Apo pol 5' (DRC-2; concentration 40; 5'): 52% | % inhibition Apol 40' (DRC-2; concentration 40; 40'): 55% | % inhibition ApPOL 90' (DRC-2; concentration 40; 90'): 51% | % inhibition apPOL 180' (DRC-2; concentration 40; 180'): 38% | % inhibition Apo pol 5' (DRC-2; concentration 80; 5'): 51% | % inhibition Apol 40' (DRC-2; concentration 80; 40'): 51% | % inhibition ApPOL 90' (DRC-2; concentration 80; 90'): 48% | % inhibition apPOL 180' (DRC-2; concentration 80; 180'): 39% | DNA Pol [2]: 28 | DNA Pol [3]: 28
